Measured values reported in patent US7122353B2, “Targeted carrier fusions for delivery of chemotherapeutic agents” (Wisconsin Alumni Research Foundation, priority 2003, dated 2006).
Where a name gives a salt, the structure may show the parent alone. Numbered stars: 1 amine (or outer) side, 2 acyl side, 3 side chain; on linkers, the order of the positions; unused ones are H or OH. Bridge positions count the residues as written; N and C are the ends. Square brackets hold non-standard residues; d marks the D form. Peptide text beside a SMILES is read from it. I, II: the chains in the order shown. Actinocin(9to1) = Cc1c2oc3c(C)ccc(C(=O)[*:1])c3nc-2c(C(=O)[*:2])c(N)c1=O; NMeV = CN[C@H](C(=O)O)C(C)C; Sar = CNCC(=O)O

Key:
[1] = cited from earlier work
prostates cancers = conditions: mouse, in vivo; cited from earlier work
[2] = test system: cancer cell lines (WM115, KS1617); assay: Fluorescence imaging of binding of IC3-OSu-labeled carrier proteins to cancer cells; assay type: cell-based; conditions: 100 μl of 0.1 mg/ml labeled protein, about 10 min, room temperature, washed 3 times with PBS
Procedure: WM115 (high-level expression of αvβ3 integrin) and MCF7 (low level expression of αvβ3 integrin, about 10% of WM115) cell lines were grown in α MEM medium enriched with 10% fetal bovine serum (FBS) and 60 μg/ml of penicillin and 100 μg/ml of streptomycin. KS1617 cell line (high-level expression of CD13) was grown in RPMI1640 medium also enriched with 10% FBS and 60 μg/ml of penicillin and 100 μg/ml of streptomycin. The cell cultures were passed to fresh medium every 2–3 days. For fluorescent imaging, the cells were grown in 4-well culture slides to about 70% confluence before use.
To facilitate detection, the recombinant CTP-containing carrier proteins were labeled with Dojindo IC3-Osu, which reacts with lysine residues of the protein, according to the recommended protocols by the manufacturer (Dojindo, Gaithersburg, Md.) (FIG. 5). About 0.5 mg/ml protein was reacted with 3-fold excess of the fluorescent dye in dark at room temperature for 1 hr, and the extra dye was removed using Bio-Rad Econo-Pac desalting column. The labeling efficiency was measured using UV-vis spectroscopy. On average, about 25–35% of protein molecules were labeled.
The binding specificity between CTP-containing carrier proteins and various cancer cell lines was evaluated with both the native carrier proteins and normal cell lines as negative controls. […]

Cc1c2oc3c(C)ccc(C(=O)N[C@@H]4C(=O)N[C@H](C(C)C)C(=O)N5CCC[C@H]5C(=O)N(C)CC(=O)N(C)[C@@H](C(C)C)C(=O)O[C@@H]4C)c3nc-2c(C(=O)N[C@@H]2C(=O)N[C@H](C(C)C)C(=O)N3CCC[C@H]3C(=O)N(C)CC(=O)N(C)[C@@H](C(C)C)C(=O)O[C@@H]2C)c(N)c1=O [Actinomycin D] (I: T[dV]P[Sar][NMeV] / II: T[dV]P[Sar][NMeV]; ester I:1-I:C, II:1-II:C; linker I:N-II:N via Actinocin(9to1))
part of the dose excreted intact into the bile ([1]; in vivo): Half of the dose

COc1cccc2c1C(=O)c1c(O)c3c(c(O)c1C2=O)C[C@@](O)(C(C)=O)C[C@@H]3O[C@H]1C[C@H](N)[C@H](O)[C@H](C)O1 [Daunorubicin, 5,12-Naphthacenedione, (8S-cis)-8-acetyl-10-((3-amino-2,3,6-trideoxy-a-L-lyxo-hexanopyranosyl)oxy)-7,8,9,10-tetrahydro-6,8,11-trihydroxy-10-methoxy-, hydrochloride]
secreted into the bile ([1]; in vivo): about 40%

CC[C@]1(O)C[C@@H]2CN(CCc3c([nH]c4ccccc34)[C@@](C(=O)OC)(c3cc4c(cc3OC)N(C)[C@H]3[C@@](O)(C(=O)OC)[C@H](OC(C)=O)[C@]5(CC)C=CCN6CC[C@]43[C@@H]65)C2)C1 [Vinblastine]
plasma half-life after distribution (first value) ([1]; after intravenous injection): approximately 1 hours
plasma half-life after distribution (second value) ([1]; after intravenous injection): ~20 h

SMSIARL [cancer-targeting peptide for prostate cancer]
targeting to prostates cancers relative to other organs (prostates cancers): 10–15 times

B1: native CagA: His-tagged native C-1027 apo-protein encoded by the cagA gene of Streptomyces globisporus; negative control (protein)
chain: APAFSVSPASGLSDGQSVSVSVSGAAAGETYYIAQCAPVGGQDACNPATATSFTTDASGAASFSFVVRKSYTGSTPEGTPVGSVDCATAACNLGAGNSGLDLGHVALTFG
modifications: left off: small tags and cut ends
notes: His-tagged native C-1027 apo-protein encoded by the cagA gene of Streptomyces globisporus; negative control
fluorescence detected on cells after incubation with labeled protein [2]: no significant fluorescence

B2: native NcsA: His-tagged native neocarzinostatin apo-protein encoded by the ncsA gene of Streptomyces carzinostaticus; negative control (protein)
chain: AAPTATVTPSSGLSDGTVVKVAGAGLQAGTAYDVGQCAWVDTGVLACNPADFSSVTADANGSASTSLTVRRSFEGFLFDGTRWGTVDCTTAACQVGLSDAAGNGPEGVAISFN
modifications: left off: small tags and cut ends
notes: His-tagged native neocarzinostatin apo-protein encoded by the ncsA gene of Streptomyces carzinostaticus; negative control
fluorescence detected on cells after incubation with labeled protein [2]: no significant fluorescence
